The target of test [1] is T1, Endothelin receptor type B (Homo sapiens, UniProt P24530).
T1 sequence (P24530 whole entry): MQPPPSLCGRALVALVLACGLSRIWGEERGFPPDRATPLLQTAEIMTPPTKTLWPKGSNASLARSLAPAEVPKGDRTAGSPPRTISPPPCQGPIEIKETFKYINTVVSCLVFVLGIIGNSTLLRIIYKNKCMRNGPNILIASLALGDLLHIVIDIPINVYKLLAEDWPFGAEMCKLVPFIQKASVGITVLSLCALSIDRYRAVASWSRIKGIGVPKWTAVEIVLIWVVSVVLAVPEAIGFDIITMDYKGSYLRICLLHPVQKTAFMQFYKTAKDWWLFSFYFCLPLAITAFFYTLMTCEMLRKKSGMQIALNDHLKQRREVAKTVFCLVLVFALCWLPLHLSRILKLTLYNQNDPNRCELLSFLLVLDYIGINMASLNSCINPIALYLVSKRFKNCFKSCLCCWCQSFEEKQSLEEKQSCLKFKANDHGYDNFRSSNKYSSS
Nature of the test: Functional inhibition of ET-1 induced [Ca2+] increase in human Girardi heart (hGH) cells, which express Endothelin B receptor.

Test [2] addresses T2, Endothelin-1 receptor (Homo sapiens, UniProt P25101).
T2 sequence (P25101 whole entry): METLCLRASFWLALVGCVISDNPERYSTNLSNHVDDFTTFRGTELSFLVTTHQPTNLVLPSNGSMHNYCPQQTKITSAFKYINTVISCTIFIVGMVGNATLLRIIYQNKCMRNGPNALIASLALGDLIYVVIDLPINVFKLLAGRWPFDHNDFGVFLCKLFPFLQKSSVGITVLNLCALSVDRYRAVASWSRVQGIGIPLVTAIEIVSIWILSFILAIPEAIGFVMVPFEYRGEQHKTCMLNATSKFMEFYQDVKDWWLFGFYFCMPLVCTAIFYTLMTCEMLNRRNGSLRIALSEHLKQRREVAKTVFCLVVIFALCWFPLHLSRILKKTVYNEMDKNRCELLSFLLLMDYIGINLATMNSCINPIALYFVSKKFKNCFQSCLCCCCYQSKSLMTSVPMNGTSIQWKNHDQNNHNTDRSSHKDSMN
Nature of the test: Functional inhibition of ET-1 induced [Ca2+] increase in human neuroblastoma-derived SK-N-MC cells, which express Endothelin A receptor. It is filed as cell-based.

Test [3] has as its target T3, Endothelin receptor type B (Sus scrofa, UniProt P35463).
T3 sequence (P35463 whole entry): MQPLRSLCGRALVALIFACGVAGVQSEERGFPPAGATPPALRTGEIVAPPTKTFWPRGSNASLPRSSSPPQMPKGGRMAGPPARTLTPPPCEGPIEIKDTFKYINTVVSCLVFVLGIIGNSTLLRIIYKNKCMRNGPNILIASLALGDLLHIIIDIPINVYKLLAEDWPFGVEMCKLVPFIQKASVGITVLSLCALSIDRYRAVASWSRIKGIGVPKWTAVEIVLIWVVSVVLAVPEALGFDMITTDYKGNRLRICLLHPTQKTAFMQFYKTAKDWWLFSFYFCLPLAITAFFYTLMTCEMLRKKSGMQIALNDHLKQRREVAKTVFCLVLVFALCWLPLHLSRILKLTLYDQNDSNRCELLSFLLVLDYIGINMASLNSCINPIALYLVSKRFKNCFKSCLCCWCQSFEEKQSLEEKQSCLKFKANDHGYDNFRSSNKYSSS
Nature of the test: Inhibitory activity against 125 I-labeled ET-1 binding to Endothelin B receptor in porcine cerebellum membranes. Type of test: cell membranes, Membrane.

In test [4] the target is T4, Endothelin-1 receptor (Sus scrofa, UniProt Q29010).
T4 sequence (Q29010 whole entry): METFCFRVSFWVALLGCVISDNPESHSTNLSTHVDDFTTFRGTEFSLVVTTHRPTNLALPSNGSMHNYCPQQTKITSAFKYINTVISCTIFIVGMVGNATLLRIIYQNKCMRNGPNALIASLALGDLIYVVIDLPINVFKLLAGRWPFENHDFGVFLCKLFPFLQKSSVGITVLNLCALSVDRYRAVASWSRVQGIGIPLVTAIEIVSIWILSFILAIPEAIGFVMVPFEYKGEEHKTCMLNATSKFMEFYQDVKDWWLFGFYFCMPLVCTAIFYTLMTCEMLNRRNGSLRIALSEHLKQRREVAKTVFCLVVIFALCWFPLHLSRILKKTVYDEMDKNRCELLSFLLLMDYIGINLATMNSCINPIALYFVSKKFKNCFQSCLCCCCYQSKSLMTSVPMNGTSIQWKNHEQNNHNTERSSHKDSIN
Description: Inhibitory activity against 125 I-labeled ET-1 binding to Endothelin A receptor in porcine aortic smooth muscle membranes.

Molecules are shown by their SMILES.

As usually defined, the IC50 is the concentration that inhibits the measured activity by half. As for `CCCC[C@@H](NC(=O)[C@@H](Cc1c(Br)[nH]c2ccccc12)NC(=O)[C@@H](NC(=O)N1[C@H](C)CCC[C@@H]1C)C1CC1)C(=O)O`, the half-inhibitory concentration (IC50) in test [1] stood at 0.8 nM; on Endothelin-1 receptor [2], 16 nM.
In the case of `CCCC[C@@H](NC(=O)[C@@H](Cc1cn(C(=O)OC)c2ccccc12)NC(=O)[C@H](CC(C)(C)C)NC(=O)N1[C@H](C)CCC[C@@H]1C)C(=O)O`, the 50% inhibitory concentration (IC50) in test [3] turned out to be 1.2 nM; at Endothelin-1 receptor [4] it was 280 nM.
Consider `CC(C)C[C@@H]1NC(=O)[C@@H](C(C)C)NC(=O)C2CCCN2C(=O)[C@@H](CC(=O)O)NC(=O)[C@@H](Cc2c[nH]c3ccccc23)NC1=O` (single isomer, unassigned) [BQ-123], for which the IC50 at Endothelin-1 receptor [4] stood at 22 nM.
Take `CCCC[C@@H](NC(=O)[C@@H](Cc1c(C#N)[nH]c2ccccc12)NC(=O)[C@@H](NC(=O)N1[C@H](C)CCC[C@@H]1C)C(C)C)C(=O)O`: the IC50 in test [1] was 4 nM; against Endothelin-1 receptor [2] it was 6100 nM.

The values above are taken from ChEMBL document CHEMBL1128763, “Synthesis of 2-substituted d-tryptophan-containing peptide derivatives with endothelin receptor antagonist activity” (Bioorg Med Chem Lett, 1995).
